Source: PubChem BioAssay AID330 (DTP/NCI, 2004)
“And” between values parts separate entries of the source, which are not always exact repeats. Equal values may be shown once. Inconclusive results and toxic doses are left out. The calls were made as follows: active = survival T/C of 150% or more; inactive = T/C below 125% in these data.

Test system: P388 leukemia ip, CD2F1 mice, survival T/C
Experiment: NCI In Vivo Anticancer Drug Screen. Data for tumor model P388 Leukemia (intraperitoneal) in CD2F1 (CDF1) mice
Conditions: endpoint: median survival time, higher = longer survival
Method in brief: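 Mice carrying the transplanted tumor received test compound or vehicle. Survival was recorded in each group, and the value is the treated-group measurement divided by that of the vehicle-treated control group.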

[1] = dose: 50.0 mg/kg/injection, schedule: Q01DX005 (ip), vehicle: saline with Tween-80
[2] = dose: 100.0 mg/kg/injection, schedule: Q01DX005 (ip), vehicle: saline with Tween-80
[3] = dose: 200.0 mg/kg/injection, schedule: Q01DX005 (ip), vehicle: saline with Tween-80
[4] = dose: 50.0 mg/kg/injection, schedule: Q01DX009 (ip), vehicle: saline with Tween-80
[5] = dose: 100.0 mg/kg/injection, schedule: Q01DX009 (ip), vehicle: saline with Tween-80
[6] = dose: 200.0 mg/kg/injection, schedule: Q01DX009 (ip), vehicle: saline with Tween-80
[7] = dose: 60.0 mg/kg/injection, schedule: Q01DX005 (ip), vehicle: saline with Tween-80
[8] = dose: 120.0 mg/kg/injection, schedule: Q01DX005 (ip), vehicle: saline with Tween-80
[9] = dose: 240.0 mg/kg/injection, schedule: Q01DX005 (ip), vehicle: saline with Tween-80
[10] = dose: 50.0 mg/kg/injection, schedule: Q01DX009 (ip), vehicle: Klucel (hydroxypropylcellulose) (HPC)

Measured: T/C

COc1cc(C/C=C/c2ccccc2)c(OC)cc1O
inactive: dose: 2.5 mg/kg/injection, schedule: Q01DX009 (ip), vehicle: saline with Tween-80 91 % of control | dose: 5.0 mg/kg/injection, schedule: Q01DX009 (ip), vehicle: saline with Tween-80 102 % of control | dose: 10.0 mg/kg/injection, schedule: Q01DX009 (ip), vehicle: saline with Tween-80 101 % of control

[SeH]c1ccccc1
inactive: dose: 7.5 mg/kg/injection, schedule: Q01DX009 (ip), vehicle: saline with Tween-80 106 % of control | dose: 15.0 mg/kg/injection, schedule: Q01DX009 (ip), vehicle: saline with Tween-80 113 % of control | dose: 30.0 mg/kg/injection, schedule: Q01DX009 (ip), vehicle: saline with Tween-80 116 % of control

CCOc1cc2c(cc1C(C)c1ccccc1OC)OCO2 (stereo not drawn)
inactive: [1] 100 % of control | [2] 98 % of control | [3] 96 % of control

CC(CCC(=O)O)(c1ccc(OC(=O)Nc2ccc(Br)cc2)cc1)c1ccc(OC(=O)Nc2ccc(Br)cc2)cc1
inactive: [1] 102 % of control | [2] 97 % of control | [3] 100 % of control

CCC[As](CCC)SC1OC(COC(C)=O)C(OC(C)=O)C(OC(C)=O)C1OC(C)=O (stereo not drawn)
inactive: [4] 117 % of control and 88 % of control | [5] 107 % of control and 92 % of control | [6] 110 % of control and 124 % of control

O=C(NCCCCCCNC(=O)OCOC(=O)NCCCCCCNC(=O)Nc1ccc(SCCO)cc1)Nc1ccc(SCCO)cc1
inactive: dose: 100.0 mg/kg/injection, schedule: Q04DX003 (ip), vehicle: saline 102 % of control | dose: 200.0 mg/kg/injection, schedule: Q04DX003 (ip), vehicle: saline 102 % of control | dose: 400.0 mg/kg/injection, schedule: Q04DX003 (ip), vehicle: saline 99 % of control

CC(=O)c1cc(Cl)ccc1OCC(O)CNc1ccc(Cl)cc1C(=O)c1ccccc1 (stereo not drawn)
inactive: [7] 90 % of control | [8] 92 % of control | [9] 86 % of control

COc1ccc(C(=O)N=C(N)n2nc(C)cc2C)cc1
inactive: dose: 100.0 mg/kg/injection, schedule: Q04DX003 (ip), vehicle: Klucel (hydroxypropylcellulose) (HPC) 90 % of control | dose: 200.0 mg/kg/injection, schedule: Q04DX003 (ip), vehicle: Klucel (hydroxypropylcellulose) (HPC) 101 % of control | dose: 400.0 mg/kg/injection, schedule: Q04DX003 (ip), vehicle: Klucel (hydroxypropylcellulose) (HPC) 94 % of control

CCCCCCCCCCCCCCCCSCC(COC)COP(=O)([O-])OCC[N+](C)(C)C (stereo not drawn)
inactive: dose: 1.25 mg/kg/injection, schedule: Q01DX005 (oral), vehicle: saline 109 % of control | dose: 2.5 mg/kg/injection, schedule: Q01DX005 (oral), vehicle: saline 106 % of control | dose: 5.0 mg/kg/injection, schedule: Q01DX005 (oral), vehicle: saline 110 % of control | dose: 10.0 mg/kg/injection, schedule: Q01DX005 (oral), vehicle: saline 110 % of control | dose: 20.0 mg/kg/injection, schedule: Q01DX005 (oral), vehicle: saline 109 % of control | dose: 40.0 mg/kg/injection, schedule: Q01DX005 (oral), vehicle: saline 108 % of control

COC(C(=O)C1=C2Oc3c4c(cc(O)c3C(=O)C2C2=C(CCCC2)C1=O)OC(C)(C)C=C4)C(C)CCC=C(C)C (stereo not drawn)
inactive: dose: 50.0 mg/kg/injection, schedule: Q01DX005 (ip), vehicle: saline 112 % of control | dose: 200.0 mg/kg/injection, schedule: Q01DX005 (ip), vehicle: saline 90 % of control

C=C[C@]1(C)C[C@@H](OC(=O)CO)[C@@]2(C)[C@H](C)CC[C@]3(CCC(=O)[C@H]32)[C@@H](C)[C@@H]1O
inactive: dose: 12.5 mg/kg/injection, schedule: Q01DX009 (ip), vehicle: Klucel (hydroxypropylcellulose) (HPC) 101 % of control | dose: 25.0 mg/kg/injection, schedule: Q01DX009 (ip), vehicle: Klucel (hydroxypropylcellulose) (HPC) 97 % of control | [10] 101 % of control and 108 % of control and 94 % of control | dose: 150.0 mg/kg/injection, schedule: Q01DX009 (ip), vehicle: Klucel (hydroxypropylcellulose) (HPC) 100 % of control and 95 % of control | dose: 200.0 mg/kg/injection, schedule: Q01DX009 (ip), vehicle: Klucel (hydroxypropylcellulose) (HPC) 104 % of control and 107 % of control | dose: 400.0 mg/kg/injection, schedule: Q01DX009 (ip), vehicle: Klucel (hydroxypropylcellulose) (HPC) 107 % of control

C=C(C)C12OC1[C@@]1(C)C(=CC2=O)CCC(O)[C@@H]1C (stereo partly drawn)
inactive: dose: 20.0 mg/kg/injection, schedule: Q01DX005 (ip), vehicle: saline 101 % of control | dose: 40.0 mg/kg/injection, schedule: Q01DX005 (ip), vehicle: saline 104 % of control | dose: 80.0 mg/kg/injection, schedule: Q01DX005 (ip), vehicle: saline 100 % of control

O=C(Cc1nc2ccccc2[nH]c1=O)c1cccnc1
inactive: [7] 99 % of control | [8] 94 % of control | [9] 98 % of control

CC(=O)Nc1ccc(OCCCN2CCOCC2)cc1
inactive: dose: 100.0 mg/kg/injection, schedule: Q04DX002 (ip), vehicle: Klucel (hydroxypropylcellulose) (HPC) 102 % of control | dose: 200.0 mg/kg/injection, schedule: Q04DX002 (ip), vehicle: Klucel (hydroxypropylcellulose) (HPC) 101 % of control | dose: 400.0 mg/kg/injection, schedule: Q04DX002 (ip), vehicle: Klucel (hydroxypropylcellulose) (HPC) 95 % of control

CCOC(=O)c1ccc(NC(=O)Nc2nn[nH]n2)cc1
inactive: dose: 25.0 mg/kg/injection, schedule: Q01DX009 (ip), vehicle: distilled water + Tween-80 105 % of control | dose: 50.0 mg/kg/injection, schedule: Q01DX009 (ip), vehicle: distilled water + Tween-80 115 % of control | dose: 100.0 mg/kg/injection, schedule: Q01DX009 (ip), vehicle: distilled water + Tween-80 108 % of control | dose: 200.0 mg/kg/injection, schedule: Q01DX009 (ip), vehicle: distilled water + Tween-80 100 % of control | dose: 400.0 mg/kg/injection, schedule: Q01DX009 (ip), vehicle: distilled water + Tween-80 108 % of control

CCCCNC(=S)N/N=C1/C=C2C=CC3C(CCC4(C)C(OC(C)=O)CCC34)C2(C)CC1 (stereo not drawn)
inactive: dose: 100.0 mg/kg/injection, schedule: Q01DX001 (ip), vehicle: saline 99 % of control | dose: 200.0 mg/kg/injection, schedule: Q01DX001 (ip), vehicle: saline 98 % of control | dose: 400.0 mg/kg/injection, schedule: Q01DX001 (ip), vehicle: saline 97 % of control

CCOC(=O)/C=C1\CONC(c2ccc(OC)cc2)=N1
inactive: [7] 106 % of control | [8] 97 % of control | [9] 105 % of control

c1ccc(C(NC2=NCCCCCC2)c2ccco2)cc1 (stereo not drawn)
inactive: dose: 7.5 mg/kg/injection, schedule: Q01DX005 (ip), vehicle: saline with Tween-80 99 % of control | dose: 15.0 mg/kg/injection, schedule: Q01DX005 (ip), vehicle: saline with Tween-80 93 % of control | dose: 30.0 mg/kg/injection, schedule: Q01DX005 (ip), vehicle: saline with Tween-80 101 % of control

O=C(O)CNC(=O)C(=O)c1c[nH]c2ccc([N+](=O)[O-])cc12
inactive: [7] 97 % of control | [8] 97 % of control | [9] 94 % of control

NNC(=O)COc1ccc(Br)cc1Br
inactive: [7] 95 % of control | [8] 97 % of control

O=C(O)Cc1c[nH]c2cc(Cl)ccc12
inactive: [4] 100 % of control | [5] 102 % of control | [6] 105 % of control

NS(=O)(=O)c1ccc(Cl)c(Cl)c1
inactive: dose: 100.0 mg/kg/injection, schedule: Q04DX003 (ip), vehicle: saline with Tween-80 90 % of control | dose: 200.0 mg/kg/injection, schedule: Q04DX003 (ip), vehicle: saline with Tween-80 90 % of control | dose: 400.0 mg/kg/injection, schedule: Q04DX003 (ip), vehicle: saline with Tween-80 90 % of control

COc1ccccc1Cc1c(OC)cc(OC)c(C(=O)CCc2ccccc2)c1O
inactive: dose: 3.2 mg/kg/injection, schedule: Q01DX009 (ip), vehicle: other 100 % of control | dose: 4.3 mg/kg/injection, schedule: Q01DX009 (ip), vehicle: other 110 % of control | dose: 6.4 mg/kg/injection, schedule: Q01DX009 (ip), vehicle: other 100 % of control and 105 % of control | dose: 9.6 mg/kg/injection, schedule: Q01DX009 (ip), vehicle: other 114 % of control and 97 % of control | dose: 14.0 mg/kg/injection, schedule: Q01DX009 (ip), vehicle: other 89 % of control | dose: 28.0 mg/kg/injection, schedule: Q01DX009 (ip), vehicle: other 91 % of control

C1=[N+]2N=C(SCc3ccccc3)S[B-]2([C+]2CCCCC2)Oc2ccccc21 (stereo not drawn)
inactive: [1] 91 % of control | [2] 94 % of control | [3] 91 % of control

NC(=O)c1cc([N+](=O)[O-])cnc1Sc1ncn[nH]1
inactive: [10] 98 % of control | dose: 100.0 mg/kg/injection, schedule: Q01DX009 (ip), vehicle: Klucel (hydroxypropylcellulose) (HPC) 107 % of control
